The test system of this experiment is HSD-fed rats. Briefly: In vivo efficacy study in HSD-fed steatosis rats: immunohistochemical 8-OH-dG examination of liver. More on the design: species or system rat. The conditions noted are these: 30 mg/kg, 7 days, HSD 3w group: strong, FIG. 3. An excerpt:
In vivo efficacy studies. After 1-week acclimation period, rats were randomly separated into two groups: control group (n=5) and high sucrose group (n=20). The control group was fed with a standard diet while the others consumed high sucrose diet (HSD). Sucrose was purchased from Sigma Chemical Co. (St Louis, MO, USA) and supplied at the dose of 10% in the drink water for two weeks. After 2 weeks, five rats in the HSD group were randomly sacrificed for conformation of NAFLD model. Then, the remaining rats in the HSD group were separated into three sub-groups (n=5): HSD group, HSD plus BX-912 group and HSD plus JNK-IN-5A group. BX-912 and JNK-IN-5A were dissolved in DMSO and were orally administrated using oral gavage for one week (30 mg/kg/day). The HSD group were treated with vehicle solution only. At the end of the experiment, rats were sacrificed after being anesthetized. Blood samples were collected from the abdominal aorta and centrifuged at 8000 rpm for 15 min at 4° C. The plasma was separated and stored at −80° C. until further analysis. Other internal organs, including the heart, adipose tissues, liver, kidney, muscle, intestine (duodenum, ileum, jejunum), pancreas, colon and stomach were immediately removed and then snap frozen in liquid nitrogen and stored at −80° C.; the liver was also fixed in 10% formaldehyde for histopathological examination. Immunohistochemical examination. […]

Consider `O=C(Nc1cccc(Nc2ncc(Br)c(NCCc3cnc[nH]3)n2)c1)N1CCCC1` [BX-912, N-[3-[[5-bromo-4-[[2-(1H-imidazol-5-yl)ethyl]amino]-2-pyrimidinyl]amino]phenyl]-1-pyrrolidinecarboxamide], for which the “8-OH-dG expression in hepatocytes in liver tissues” value is recorded as “significantly decreased”. For `N#Cc1c(NC(=O)c2cccc3ccccc23)sc2c1CCCC2` [JNK-IN-5A, N-(3-cyano-4,5,6,7-tetrahydrobenzo [b]thien-2-yl)-1-naphthalenecarboxamide] the value was “significantly decreased”.
